Molecules are shown by their SMILES. Like-named read-outs stand apart in the source and are kept apart here.

The test system of one series is C57BL/6J. In words: Randomized controlled trial in mice, compounds in Lipoderm applied daily to right flank (Example 1). To be noted: for Local increase in subcutaneous fat / asymmetry between flanks: following 24 days of therapy, right flank treated, left flank untreated. The format is in vivo. The procedure: The arms were as follows: vehicle (Lipoderm®), a thiazolidinedione (pioglitazone), harmine, an orexigenic compound (megestrol acetate), and efavirenz. Each compound was combined in the percutaneous Lipoderm® formulation at an equimolar concentration (5 mM). The Lipoderm® vehicle is adapted to deliver the respective compound percutaneously, i.e., across the skin and into subcutaneous fat. The formulations were applied daily to the right flank of each animal, whereas the left flank was used as an untreated control.
A randomized controlled trial was conducted on C57BL/6J. Male mice approximately six weeks old were prospectively randomized into groups and assigned to the following treatment conditions (n=5 animals per group):
Animals were shaved and depilated over the flanks at the start of the study.
Animals were kept in identical conditions and fed ab libitum with a standardized high-fat diet (70% kcal fat). Animals were weighed three times weekly. Following 24 consecutive days of treatment, mice were sacrificed and samples of skin and adjacent fat from the treated flanks are taken for histologic examination.

The test system of another series is patient. In words: Clinical application for augmentation of the buttocks (Example 9). It counts as in vivo, human. To be noted: 10 mg/ml in Lipoderm daily, after 6 months; contemplated. The procedure:
The following description exemplifies a clinical application of percutaneous administration of an orexigenic pregnane derivative for augmentation of the buttocks. A female or male patient wishes to undergo a buttocks augmentation procedure but is concerned about the risks of surgery. The physician prescribes a daily application of megestrol acetate (for example, 10 mg/ml in Lipoderm®) to the buttocks.

Another series has as its system Gottingen minipigs. To be noted: for Increase over Placebo in subcutaneous fat thickness, MEAN: mean of 24 sites, 42 days. The procedure:
(§1) A prospective controlled trial was performed in 4 Gottingen minipigs (2 males, 2 females). Hair on the back was clipped. […] An equivalent Vehicle Treatment Area was marked on the left side of the animal, such that the two treatment areas were anatomically equivalent. […] After 42 days of treatment, plasma pharmacokinetics (PK) was assessed on all animals by Liquid Chromatography/Tandem Mass Spectrometry. Necropsy was done and samples of skin, subcutaneous fat, and muscle were collected en bloc from each treatment area in a controlled fashion. […] Table 5 presents the thicknesses of subcutaneous fat on each of six treated and control (vehicle) locations, by animal. […] Table 6 compares plasma PK following percutaneous administration (present study) with plasma PK following oral administration in humans.

The nature of series [1]: Plasma pharmacokinetics after percutaneous administration in minipigs (Example 4). To be noted: percutaneous versus oral. The procedure: as §1

Turning to `O=C1Nc2ccc(Cl)cc2[C@@](C#CC2CC2)(C(F)(F)F)O1` [Efavirenz], the “Local increase in subcutaneous fat / asymmetry between flanks” value in the series with C57BL/6J is recorded as “did not exhibit any increase in fat or asymmetry between the two flanks”.

Take `COc1ccc2c(c1)[nH]c1c(C)nccc12` [Harmine]: in the series with C57BL/6J, the “Local increase in subcutaneous fat / asymmetry between flanks” value is recorded as “did not exhibit any increase in fat or asymmetry between the two flanks”.

In the case of `CC(=O)O[C@]1(C(C)=O)CC[C@H]2[C@@H]3C=C(C)C4=CC(=O)CC[C@]4(C)[C@H]3CC[C@@]21C` [Megestrol acetate], the “Relative skin fold thickness of left and right flanks” value in the series with C57BL/6J (examined on Day 24) is given as “asymmetric, with thicker skin folds on the treated flanks compared to the untreated flanks”. The “Local increase in subcutaneous fat / asymmetry between flanks” value in the series on C57BL/6J is listed as “exhibited local increases in subcutaneous fat”. Besides, the “Thickness of skin fold, right (treated) flank” value with C57BL/6J (representative mouse, 24 days of treatment, left (untreated) flank about 2 mm) is reported as “about 4 mm”. Besides, the “Buttocks size, clinical appearance” value in the series on patient is “the buttocks appear clinically larger”.

Take `CN(CCOc1ccc(CC2SC(=O)NC2=O)cc1)c1ccccn1` (centres unmarked) [Rosiglitazone]: the “Increase over Placebo in subcutaneous fat thickness, MEAN” value in the series on Gottingen minipigs is reported as 48%. Besides, the “Increase over Placebo in subcutaneous fat thickness, MEAN” value in the series on Gottingen minipigs (listed as rosiglitazone) is 48%. In the series on Gottingen minipigs (minipig, in vivo), the Tolerability result is “well tolerated, with no evidence of skin irritation or other clinical observations”. In series [1], the “Peak plasma concentration, lower than for oral (systemic) therapy” value is “about 3400 fold” and the “Plasma exposure, lower than for oral (systemic) therapy” value is on record as around 1300 fold.

These data come from US8883834B2, “Methods and compositions for locally increasing body fat” (Topokine Therapeutics, Inc., priority 2012, dated 2014).
